According to article PMC7725003, “Systematically Studying the Optimal Amino Acid Distribution Patterns of the Amphiphilic Structure by Using the Ultrashort Amphiphiles” (Frontiers in Microbiology, 2020):
Where no end group is shown, it is not given here.

How the values were obtained:
[1] = system: S. typhimurium 14028; assay type: cell-based, Salmonella typhimurium; conditions: 14028, 24 h
Summary of the method: (§1)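 Modified NCCLS broth microdilution: mid-log bacteria diluted in MHB to 0.5–1 × 10^6 CFU mL^–1, mixed with peptides serially diluted in 0.2% BSA, incubated 24 h at 37°C. MIC taken as lowest concentration inhibiting 95% of growth by absorbance at 492 nm.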

[2] = system: S. typhimurium 7731; assay type: cell-based, Salmonella typhimurium; conditions: 7731, 24 h
Summary of the method: as §1

[3] = system: S. pullorum 7913; assay type: cell-based, Salmonella pullorum; conditions: 7913, 24 h
Summary of the method: as §1

[4] = system: E. coli K88
Summary of the method: (§2)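 Peptides were serially diluted in 0.2% BSA and added to mid-logarithmic cells diluted in MHB to 0.5–1 × 10^6 CFU mL^–1. Assays followed an adapted NCCLS protocol.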

[5] = system: E. coli K99
Summary of the method: as §2

[6] = system: S. aureus 25923; assay type: cell-based, Staphylococcus aureus; conditions: 25923, 24 h
Summary of the method: as §1

[7] = system: S. aureus 29213; assay type: cell-based, Staphylococcus aureus; conditions: 29213, 24 h
Summary of the method: as §1

[8] = LPS binding assay (BODIPY-TR-cadaverine displacement); set-up: species or system Escherichia coli; conditions: 1 h 37°C
Method: A BODIPY-TR-cadaverine (BC Sigma, United States) displacement assay was used to determine the abilities of the peptides to bind LPS ([Ma et al., 2015]); in this assay, a probe bound to cell-free LPS was self-quenched but fluoresced upon release into solution. The LPS from E. coli O111:B4 (50 μg/mL) was incubated with a BODIPY-TR-cadaverine (5 μg/mL) in Tris buffer (50 mM, pH 7.4) for 4 h. Subsequently, equal volumes of the LPS-probe solution and the peptides (1–64 μM) were incubated in a sterile 96-well black plate for 1 h at 37°C, and the fluorescence was measured on a spectrofluorophotometer (the Infinite 200 pro, Tecan, China) at excitation and emission wavelengths of 580 nm and 620 nm, respectively. Each test was performed independently in triplicate. The values were converted to %ΔF (AU) using the following equation:
where Fobs is the observed fluorescence at a given peptide concentration, F0 is the initial fluorescence of BC with LPS in the absence of peptides, and F100 is the BC fluorescence with LPS cells upon the addition of 10 μg mL^–1 polymyxin B, a prototype LPS binder serving as the positive control.

[9] = system: E. coli ATCC 25922; test: Outer membrane permeabilization (NPN uptake); assay type: cell-based, Escherichia coli; conditions: at 16 μM peptide
Method: Mid-log phase E. coli ATCC 25922 cells (OD600 = 0.2) were incubated with NPN (10 μM) in 5 mM HEPES buffer (pH 7.4, containing 5 mM glucose) for 30 min. The background fluorescence was recorded for subtraction (excitation λ = 350 nm, emission λ = 420 nm) with an F-4500 fluorescence spectrophotometer (Hitachi, Japan). Subsequently, 100 μL of cell suspension was mixed with equal volumes of the peptide solution at concentrations that ranged from 1 to 64 μM in a sterile 96-well black plate. The fluorescence was recorded over time until no further fluorescence increase was detectable. Each test was performed independently in triplicate, and the results were converted to the percentage of NPN uptake using the equation:
where Fobs is the observed fluorescence at a given peptide concentration, F0 is the initial fluorescence of NPN with microbial cells in the absence of peptide, and F100 is the fluorescence of NPN with microbial cells upon the addition of 10 μg/mL polymyxin B (Sigma) (for bacteria) as a positive control.

[10] = system: Gram-negative bacteria; conditions: geometric mean of MBCs, 9 Gram-negative strains (Table 2)
[11] = system: Gram-positive bacteria; conditions: geometric mean of MBCs, 7 Gram-positive strains (Table 2)
[12] = system: E. coli ATCC 25922; test: Cytoplasmic membrane depolarization (DiSC3-5); assay type: cell-based, Escherichia coli; conditions: DiSC3-5 release, at all concentrations
Method: Mid-log phase E. coli ATCC 25922 cells (OD600 = 0.05) were incubated with 0.4 μM DiSC3-5 and 100 mM K ^+ in 5 mM HEPES buffer (pH 7.4, containing 20 mM glucose) until a steady decrease in fluorescence was achieved. The background fluorescence (excitation λ = 622 nm, emission λ = 670 nm) was recorded with an F-4500 fluorescence spectrophotometer (Hitachi, Japan). Subsequently, 2 mL of the cell suspension was added to a 1-cm quartz cuvette and mixed with various concentrations of peptide. The change in fluorescence in C-1, C-2, and C-3 was recorded from 0 to 1,000, 2,000, and 2,500 s, respectively.

[13] = MHB, 24 h 37°C, 95% growth inhibition
[14] = value in brackets, >99.9% of cells killed

Substance	MBC [1] [µM]	MIC [1] [µM]	MBC [2] [µM]	MIC [2] [µM]	MBC [3] [µM]	MIC [3] [µM]	MIC [4, 13] [µM]	MBC [4, 14] [µM]	MIC [5, 13] [µM]	MBC [5, 14] [µM]	MBC [6] [µM]	MIC [6] [µM]	MBC [7] [µM]	MIC [7] [µM]	LPS binding efficiency ([8]; at 16 μM peptide) [%]	outer membrane permeabilization (NPN uptake) [9]	GM MBC [10] [µM]	GM MBC [11] [µM]	LPS binding efficiency ([8]; at 32 μM peptide) [%]	time to cytoplasmic membrane depolarization / highest fluorescence intensity [12] [s]
RLRLRLRLL-NH2 [L5]	8	4	8	4	4	2	2	4	4	8	16	8	16	8	~80	approximately 50%	6.35	11.89	–	–
RWRWRWRWW-NH2 [W5]	8	4	8	4	4	2	–	–	–	–	4	2	4	2	–	approximately 100%	–	–	~80	≤ 300
